Results published in ChEMBL document CHEMBL4043153, “Lead selection of antiparasitic compounds from a focused library of benzenesulfonyl derivatives of heterocycles” (Bioorg Med Chem Lett, 2017).
Calls of active or inactive are those of the source. The calls are words filed in the database; no cut-off is given here.

Legend:
Plasmodium falciparum [1] = assay: (§1) Antiparasitic activity against intraerythrocytic form of chloroquine/pyrimethamine-resistant Plasmodium falciparum K1 infected in human RBC assessed as growth inhibition at 4.8 ug/ml preincubated for 48 hrs followed by [3H]-hypoxanthine addition measured after 24 hrs by liquid scintillation counting analysis relative to control; type: functional; conditions: read-out: GI
Trypanosoma cruzi [2] = assay: Antiparasitic activity against Trypanosoma cruzi Tulahuen C4 intracellular amastigotes infected in rat L6 cells after 96 hrs by CPRG/Nonidet reagent based photometric analysis; type: functional, cell-based; conditions: Tulahuen C4, L6, 96 h
Trypanosoma cruzi [3] = assay: Antiparasitic activity against Trypanosoma cruzi Tulahuen C4 intracellular amastigotes infected in rat L6 cells assessed as growth inhibition at 0.8 ug/ml after 96 hrs by CPRG/Nonidet reagent based photometric analysis relative to control; type: functional; conditions: Tulahuen C4, L6, 96 h, read-out: GI
[4] = Selectivity index, ratio of IC50 for rat L6 cells to IC50 for Trypanosoma cruzi Tulahuen C4 intracellular amastigotes infected in rat L6 cells; type: toxicity, cell-based; conditions: read-out: Ratio IC50
[5] = system: Trypanosoma brucei rhodesiense; assay: Antiparasitic activity against Trypanosoma brucei rhodesiense STIB 900 trypomastigote bloodstream form assessed as growth inhibition at 4.8 ug/ml after 72 hrs by resazurin dye-based fluorometric analysis relative to control; type: functional; conditions: STIB 900, 72 h, read-out: GI
Leishmania donovani [6] = assay: Antiparasitic activity against Leishmania donovani MHOM-ET-67/L82 axenic amastigotes assessed as growth inhibition at 0.8 ug/ml after 72 hrs by resazurin dye-based fluorometric analysis relative to control; type: functional; conditions: MHOM-ET-67/L82, 72 h, read-out: GI
Leishmania donovani [7] = assay: Antiparasitic activity against Leishmania donovani MHOM-ET-67/L82 axenic amastigotes assessed as growth inhibition at 4.8 ug/ml after 72 hrs by resazurin dye-based fluorometric analysis relative to control; type: functional; conditions: MHOM-ET-67/L82, 72 h, read-out: GI
[8] = system: Trypanosoma brucei rhodesiense; assay: Antiparasitic activity against Trypanosoma brucei rhodesiense STIB 900 trypomastigote bloodstream form assessed as growth inhibition at 0.8 ug/ml after 72 hrs by resazurin dye-based fluorometric analysis relative to control; type: functional; conditions: STIB 900, 72 h, read-out: GI
Plasmodium falciparum [9] = assay: as §1, with “0.8” for “4.8”; type: functional; conditions: read-out: GI
L6 = assay: Cytotoxicity against rat L6 cells assessed as cell viability after 72 hrs by Alamar blue assay; type: cell-based; conditions: L6, 72 h
Trypanosoma cruzi [10] = assay: Antiparasitic activity against Trypanosoma cruzi Tulahuen C4 intracellular amastigotes infected in rat L6 cells assessed as growth inhibition at 4.8 ug/ml after 96 hrs by CPRG/Nonidet reagent based photometric analysis relative to control; type: functional; conditions: Tulahuen C4, L6, 96 h, read-out: GI
Plasmodium falciparum [11] = assay: Antiparasitic activity against intraerythrocytic form of chloroquine/pyrimethamine-resistant Plasmodium falciparum K1 infected in human RBC preincubated for 48 hrs followed by [3H]-hypoxanthine addition measured after 24 hrs by liquid scintillation counting analysis; type: functional

Compound: CC1Cc2ccccc2N1S(=O)(=O)c1ccc(Cl)cc1 (configuration not stated)
- inhibition of growth at 4.8 µg/mL (Plasmodium falciparum [1]): 87.9%
- IC50 (Trypanosoma cruzi [2]): 4.79 µM
- inhibition of growth at 0.8 µg/mL (Trypanosoma cruzi [3]): 0%
- selectivity ratio [4]: 2.31
- inhibition of growth at 4.8 µg/mL [5]: 4%
- inhibition of growth at 0.8 µg/mL (Leishmania donovani [6]): 9%
- inhibition of growth at 4.8 µg/mL (Leishmania donovani [7]): 83.3%
- inhibition of growth at 0.8 µg/mL [8]: 6.5%
- inhibition of growth at 0.8 µg/mL (Plasmodium falciparum [9]): 17.7%
- IC50 (L6): 11.1 µM
- inhibition of growth at 4.8 µg/mL (Trypanosoma cruzi [10]): 100%

Compound: O=S(=O)(c1ccccc1)n1ccc2ccccc21
- Activity (Plasmodium falciparum [11]): Active

Compound: O=S(=O)(c1ccccc1)n1nnc2ccccc21
- Activity (Plasmodium falciparum [11]): Active

Compound: CC1Cc2ccccc2N1S(=O)(=O)c1ccccc1 (configuration not stated)
- inhibition of growth at 4.8 µg/mL (Plasmodium falciparum [1]): 46.4%
- inhibition of growth at 0.8 µg/mL (Trypanosoma cruzi [3]): 0%
- inhibition of growth at 4.8 µg/mL [5]: 0%
- inhibition of growth at 0.8 µg/mL (Leishmania donovani [6]): 12.5%
- inhibition of growth at 4.8 µg/mL (Leishmania donovani [7]): 27.9%
- Activity (Plasmodium falciparum [11]): Active
- inhibition of growth at 0.8 µg/mL [8]: 4.6%
- inhibition of growth at 0.8 µg/mL (Plasmodium falciparum [9]): 13.2%
- inhibition of growth at 4.8 µg/mL (Trypanosoma cruzi [10]): 5.2%

Compound: COc1ccc(S(=O)(=O)N2c3ccccc3CC2C)cc1 (configuration not stated)
- inhibition of growth at 4.8 µg/mL (Plasmodium falciparum [1]): 49.3%
- IC50 (Trypanosoma cruzi [2]): 9.46 µM
- inhibition of growth at 0.8 µg/mL (Trypanosoma cruzi [3]): 1.8%
- selectivity ratio [4]: 0.04
- inhibition of growth at 4.8 µg/mL [5]: 4.4%
- inhibition of growth at 0.8 µg/mL (Leishmania donovani [6]): 2.9%
- inhibition of growth at 4.8 µg/mL (Leishmania donovani [7]): 35%
- inhibition of growth at 0.8 µg/mL [8]: 1.2%
- inhibition of growth at 0.8 µg/mL (Plasmodium falciparum [9]): 5.3%
- IC50 (L6): 0.44 µM
- inhibition of growth at 4.8 µg/mL (Trypanosoma cruzi [10]): 100%

Compound: O=[N+]([O-])c1ccc(S(=O)(=O)n2nnc3ccccc32)cc1
- Activity (Plasmodium falciparum [11]): Active

Compound: CC1CCc2ccccc2N1S(=O)(=O)c1ccc(C(F)(F)F)cc1 (configuration not stated)
- inhibition of growth at 4.8 µg/mL (Plasmodium falciparum [1]): 98.8%
- IC50 (Trypanosoma cruzi [2]): 5.89 µM
- inhibition of growth at 0.8 µg/mL (Trypanosoma cruzi [3]): 5.3%
- selectivity ratio [4]: 2
- inhibition of growth at 4.8 µg/mL [5]: 8.1%
- inhibition of growth at 0.8 µg/mL (Leishmania donovani [6]): 29%
- inhibition of growth at 4.8 µg/mL (Leishmania donovani [7]): 96%
- inhibition of growth at 0.8 µg/mL [8]: 5.5%
- inhibition of growth at 0.8 µg/mL (Plasmodium falciparum [9]): 26.4%
- IC50 (L6): 12.2 µM
- inhibition of growth at 4.8 µg/mL (Trypanosoma cruzi [10]): 98.2%

Compound: CC1CCc2ccccc2N1S(=O)(=O)c1cccc(C(F)(F)F)c1 (configuration not stated)
- inhibition of growth at 4.8 µg/mL (Plasmodium falciparum [1]): 81.3%
- IC50 (Trypanosoma cruzi [2]): 6.6 µM
- inhibition of growth at 0.8 µg/mL (Trypanosoma cruzi [3]): 5.4%
- selectivity ratio [4]: 1.98
- inhibition of growth at 4.8 µg/mL [5]: 0%
- inhibition of growth at 0.8 µg/mL (Leishmania donovani [6]): 25.8%
- inhibition of growth at 4.8 µg/mL (Leishmania donovani [7]): 82.3%
- inhibition of growth at 0.8 µg/mL [8]: 1.8%
- inhibition of growth at 0.8 µg/mL (Plasmodium falciparum [9]): 5.8%
- IC50 (L6): 13.1 µM
- inhibition of growth at 4.8 µg/mL (Trypanosoma cruzi [10]): 95.6%

Compound: CC(=O)c1ccc(S(=O)(=O)N2c3ccccc3CC2C)cc1 (configuration not stated)
- inhibition of growth at 4.8 µg/mL (Plasmodium falciparum [1]): 46.3%
- inhibition of growth at 0.8 µg/mL (Trypanosoma cruzi [3]): 0%
- inhibition of growth at 4.8 µg/mL [5]: 0.4%
- inhibition of growth at 0.8 µg/mL (Leishmania donovani [6]): 0%
- inhibition of growth at 4.8 µg/mL (Leishmania donovani [7]): 26.8%
- inhibition of growth at 0.8 µg/mL [8]: 0%
- inhibition of growth at 0.8 µg/mL (Plasmodium falciparum [9]): 7.3%
- inhibition of growth at 4.8 µg/mL (Trypanosoma cruzi [10]): 23.7%

Compound: O=[N+]([O-])c1ccccc1S(=O)(=O)N1CCCc2ccccc21
- inhibition of growth at 4.8 µg/mL (Plasmodium falciparum [1]): 38%
- inhibition of growth at 0.8 µg/mL (Trypanosoma cruzi [3]): 0%
- inhibition of growth at 4.8 µg/mL [5]: 17.1%
- inhibition of growth at 0.8 µg/mL (Leishmania donovani [6]): 10.1%
- inhibition of growth at 4.8 µg/mL (Leishmania donovani [7]): 50.1%
- inhibition of growth at 0.8 µg/mL [8]: 6.2%
- inhibition of growth at 0.8 µg/mL (Plasmodium falciparum [9]): 3.5%
- inhibition of growth at 4.8 µg/mL (Trypanosoma cruzi [10]): 26.9%

Compound: O=S(=O)(c1ccccc1)N1CCc2ccccc21
- inhibition of growth at 4.8 µg/mL (Plasmodium falciparum [1]): 29.1%
- inhibition of growth at 0.8 µg/mL (Trypanosoma cruzi [3]): 0%
- inhibition of growth at 4.8 µg/mL [5]: 0%
- inhibition of growth at 0.8 µg/mL (Leishmania donovani [6]): 7.4%
- inhibition of growth at 4.8 µg/mL (Leishmania donovani [7]): 45.3%
- Activity (Plasmodium falciparum [11]): Active
- inhibition of growth at 0.8 µg/mL [8]: 0%
- inhibition of growth at 0.8 µg/mL (Plasmodium falciparum [9]): 2.9%
- inhibition of growth at 4.8 µg/mL (Trypanosoma cruzi [10]): 10%

Compound: CC1Cc2ccccc2N1S(=O)(=O)c1ccc(Br)cc1 (configuration not stated)
- inhibition of growth at 4.8 µg/mL (Plasmodium falciparum [1]): 76%
- IC50 (Trypanosoma cruzi [2]): 5.76 µM
- inhibition of growth at 0.8 µg/mL (Trypanosoma cruzi [3]): 0%
- selectivity ratio [4]: 2.29
- inhibition of growth at 4.8 µg/mL [5]: 0.9%
- inhibition of growth at 0.8 µg/mL (Leishmania donovani [6]): 17.6%
- inhibition of growth at 4.8 µg/mL (Leishmania donovani [7]): 81.4%
- inhibition of growth at 0.8 µg/mL [8]: 0%
- inhibition of growth at 0.8 µg/mL (Plasmodium falciparum [9]): 9.1%
- IC50 (L6): 13.2 µM
- inhibition of growth at 4.8 µg/mL (Trypanosoma cruzi [10]): 100%
